# Activity calls are given as the source filed them. The rule behind the calls is not given here.
# Key:
# [1] = test system: Escherichia coli; experiment: Inhibition of Escherichia coli beta-glucuronidase using para-nitrophenyl-beta-D-glucuronide as substrate at 0.2 mM incubated for 30 min prior to substrate addition measured for 30 min by spectrophotometric analysis
# [2] = Inhibition of Escherichia coli beta-glucuronidase using para-nitrophenyl-beta-D-glucuronide as substrate incubated for 30 min prior to substrate addition measured for 30 min by spectrophotometric analysis
Compound,inhibition [1],IC50 [2] [µM]
COc1cccc(NC(=O)NNC(=O)Cc2ccccc2OC)c1,46.5%,–
COc1ccc(Cc2n[nH]c(=O)n2-c2ccccc2OC)cc1,inactive,–
COc1cccc(CC(=O)NNC(=O)Nc2cccc(OC)c2)c1,70.8%,101
COc1cccc(Cc2n[nH]c(=O)n2-c2ccccc2OC)c1,inactive,–
COc1ccc(CCC(=O)NNC(=O)Nc2ccccc2OC)cc1,83.7%,46.1
COc1cccc(CCc2n[nH]c(=O)n2-c2ccccc2OC)c1,inactive,–
COc1ccccc1CCc1n[nH]c(=O)n1-c1ccccc1OC,inactive,–
COc1ccc(NC(=O)NNC(=O)CCc2ccccc2OC)cc1,87.9%,15.5
COc1cccc(-n2c(Cc3ccccc3OC)n[nH]c2=O)c1,inactive,–
COc1cccc(CCC(=O)NNC(=O)Nc2ccccc2OC)c1,82.9%,52.4
COc1ccc(CCc2n[nH]c(=O)n2-c2cccc(OC)c2)cc1,inactive,–
COc1ccc(CC(=O)NNC(=O)Nc2ccccc2OC)cc1,94.5%,16.8
COc1ccc(CCC(=O)NNC(=O)Nc2cccc(OC)c2)cc1,59.3%,96.7
COc1cccc(CC(=O)NNC(=O)Nc2ccccc2OC)c1,68.3%,134
COc1ccccc1Cc1n[nH]c(=O)n1-c1ccccc1OC,inactive,–
COc1cccc(NC(=O)NNC(=O)CCc2ccccc2OC)c1,54.6%,83.7
COc1ccccc1CC(=O)NNC(=O)Nc1ccccc1OC,88.8%,40.7
COc1ccc(-n2c(CCc3ccccc3OC)n[nH]c2=O)cc1,inactive,–
COc1ccc(CCc2n[nH]c(=O)n2-c2ccccc2OC)cc1,inactive,–
COc1ccccc1CCC(=O)NNC(=O)Nc1ccccc1OC,77.6%,67.3
COc1cccc(Cc2n[nH]c(=O)n2-c2cccc(OC)c2)c1,inactive,–
O=C(O)[C@@H](O)[C@H]1OC(=O)[C@H](O)[C@H]1O,86.2%,–
COc1cccc(-n2c(CCc3ccccc3OC)n[nH]c2=O)c1,inactive,–
COc1cccc(CCc2n[nH]c(=O)n2-c2cccc(OC)c2)c1,inactive,–
COc1ccc(NC(=O)NNC(=O)CCc2cccc(OC)c2)cc1,73.3%,74.5
COc1cccc(CCC(=O)NNC(=O)Nc2cccc(OC)c2)c1,52%,179
